Laboratory results published in patent US10004701B2, “Methods and compositions for treating infection” (UNIVERSITY OF ROCHESTER, priority 2012, dated 2018).
Where a name gives a salt, the structure may show the parent alone. Read-outs that look alike come from different tables or passages of the source.

Experiments:
Assay in all cases: AK assay 384-well format, Prestwick library screening
E. coli = assay type: cell-based, Escherichia coli; details: 50 μM final drug concentration; for fold induction at 50 µM: Escherichia coli, 3 h
K. pneumoniae = assay type: cell-based, Klebsiella pneumoniae; details: 50 μM final drug concentration; for fold induction at 50 µM: Klebsiella pneumoniae, 3 h
E. faecium = assay type: cell-based, Enterococcus faecium; details: 50 μM final drug concentration; for fold induction at 50 µM: Enterococcus faecium, 3 h
[1] = tested on: S. aureus strain USA300-0114; assay type: cell-based, Staphylococcus aureus; details: 50 μM final drug concentration; for fold induction at 50 µM: Staphylococcus aureus, USA300, 3 h
[2] = tested on: A. baumannii strain 98-37-09; assay type: cell-based, Acinetobacter baumannii; details: 50 μM final drug concentration; for fold induction at 50 µM: Acinetobacter baumannii, 983709, 3 h
E. cloacae = assay type: cell-based, Enterobacter cloacae; details: 50 μM final drug concentration; for fold induction at 50 µM: Enterobacter cloacae, 3 h
P. aeruginosa = assay type: cell-based, Pseudomonas aeruginosa; details: 50 μM final drug concentration; for fold induction at 50 µM: Pseudomonas aeruginosa, 3 h
[3] = 384-well format, […], read-out: AK-based Prestwick Library Screening Results, E. coli (increase in extracellular AK activity)
[4] = 384-well format, cutoff for positive-scoring molecules 3-fold increase
[5] = planktonic, cutoff for positive 3-fold increase, read-out: AK-based Prestwick Library Screening Results, E. coli (fold increase in extracellular AK activity)
[6] = planktonic, cutoff for positive 3-fold increase, read-out: AK-based Prestwick Library Screening Results, K. pneumoniae (fold increase in extracellular AK activity)
[7] = planktonic, cutoff for positive 3-fold increase, read-out: AK-based Prestwick Library Screening Results, E. faecium (fold increase in extracellular AK activity)
[8] = planktonic, cutoff for positive 3-fold increase, read-out: AK-based Prestwick Library Screening Results, S. aureus (fold increase in extracellular AK activity)
[9] = planktonic, cutoff for positive 3-fold increase, read-out: AK-based Prestwick Library Screening Results, A. baumannii (fold increase in extracellular AK activity)
[10] = planktonic, cutoff for positive 3-fold increase, read-out: AK-based Prestwick Library Screening Results, E. cloacae (fold increase in extracellular AK activity)
[11] = planktonic, cutoff for positive 3-fold increase, read-out: AK-based Prestwick Library Screening Results, P. aeruginosa (fold increase in extracellular AK activity)

With `CCCCN(CCCC)CCCOC(=O)c1ccc(N)cc1` [Butacaine] the fold induction at 50 µM (E. coli; planktonic, cutoff for positive-scoring molecules 3-fold increase, read-out: AK-based Prestwick Library Screening Results, E. coli (fold increase in extracellular AK activity)) was 0.9, the fold induction at 50 µM (K. pneumoniae; planktonic, cutoff for positive-scoring molecules 3-fold increase, read-out: AK-based Prestwick Library Screening Results, K. pneumoniae (fold increase in extracellular AK activity)) was 0.8 and the fold induction at 50 µM (E. faecium; planktonic, cutoff for positive-scoring molecules 3-fold increase, read-out: AK-based Prestwick Library Screening Results, E. faecium (fold increase in extracellular AK activity)) was 0.9. For the same compound, the fold induction at 50 µM ([1]; planktonic, cutoff for positive-scoring molecules 3-fold increase, read-out: AK-based Prestwick Library Screening Results, S. aureus (fold increase in extracellular AK activity)) was 0.8, the fold induction at 50 µM ([2]; planktonic, cutoff for positive-scoring molecules 3-fold increase, read-out: AK-based Prestwick Library Screening Results, A. baumannii (fold increase in extracellular AK activity)) was 0.9 and the fold induction at 50 µM (E. cloacae; planktonic, cutoff for positive-scoring molecules 3-fold increase, read-out: AK-based Prestwick Library Screening Results, E. cloacae (fold increase in extracellular AK activity)) was 1.4. The fold induction at 50 µM (P. aeruginosa; planktonic, cutoff for positive-scoring molecules 3-fold increase, read-out: AK-based Prestwick Library Screening Results, P. aeruginosa (fold increase in extracellular AK activity)) was 1.
In the case of `CC1CC(OC(=O)C(O)c2ccccc2)CC(C)(C)N1C` (stereo not drawn) [Eucatropine hydrochloride], the fold induction at 50 µM (E. coli; cutoff for positive-scoring molecules 3-fold increase, read-out: AK-based Prestwick Library Screening Results, E. coli (fold increase in extracellular AK activity)) is reported as 1.2, the fold induction at 50 µM (K. pneumoniae; cutoff for positive-scoring molecules 3-fold increase, read-out: AK-based Prestwick Library Screening Results, K. pneumoniae (fold increase in extracellular AK activity)) is reported as 0.9 and the fold induction at 50 µM (E. faecium; cutoff for positive-scoring molecules 3-fold increase, read-out: AK-based Prestwick Library Screening Results, E. faecium (fold increase in extracellular AK activity)) is reported as 1.1. It also gave a fold induction at 50 µM ([1]; cutoff for positive-scoring molecules 3-fold increase, read-out: AK-based Prestwick Library Screening Results, S. aureus (fold increase in extracellular AK activity)) of 1.3, a fold induction at 50 µM ([2]; cutoff for positive-scoring molecules 3-fold increase, read-out: AK-based Prestwick Library Screening Results, A. baumannii (fold increase in extracellular AK activity)) of 1.1 and a fold induction at 50 µM (E. cloacae; cutoff for positive-scoring molecules 3-fold increase, read-out: AK-based Prestwick Library Screening Results, E. cloacae (fold increase in extracellular AK activity)) of 1.6. For the same compound, the fold induction at 50 µM (P. aeruginosa; cutoff for positive-scoring molecules 3-fold increase, read-out: AK-based Prestwick Library Screening Results, P. aeruginosa (fold increase in extracellular AK activity)) was 1.1.
`O=C(CCCN1CC=C(n2c(=O)[nH]c3ccccc32)CC1)c1ccc(F)cc1` [Droperidol] was tested, and the fold induction at 50 µM (E. coli; planktonic E. coli, cutoff for positive-scoring molecules 3-fold increase, read-out: AK-based Prestwick Library Screening Results, E. coli (increase in extracellular AK activity)) was 0.9, the fold induction at 50 µM (K. pneumoniae; planktonic K. pneumoniae, cutoff for positive-scoring molecules 3-fold increase, read-out: AK-based Prestwick Library Screening Results, K. pneumoniae (increase in extracellular AK activity)) was 0.7 and the fold induction at 50 µM (E. faecium; planktonic E. faecium, cutoff for positive-scoring molecules 3-fold increase, read-out: AK-based Prestwick Library Screening Results, E. faecium (increase in extracellular AK activity)) was 1. For the same compound, the fold induction at 50 µM ([1]; planktonic S. aureus, cutoff for positive-scoring molecules 3-fold increase, read-out: AK-based Prestwick Library Screening Results, S. aureus (increase in extracellular AK activity)) was 0.9, the fold induction at 50 µM ([2]; planktonic A. baumannii, cutoff for positive-scoring molecules 3-fold increase, read-out: AK-based Prestwick Library Screening Results, A. baumannii (increase in extracellular AK activity)) was 1 and the fold induction at 50 µM (E. cloacae; planktonic E. cloacae, cutoff for positive-scoring molecules 3-fold increase, read-out: AK-based Prestwick Library Screening Results, E. cloacae (increase in extracellular AK activity)) was 1.2. The fold induction at 50 µM (P. aeruginosa; planktonic P. aeruginosa, cutoff for positive-scoring molecules 3-fold increase, read-out: AK-based Prestwick Library Screening Results, P. aeruginosa (increase in extracellular AK activity)) was 0.7.
`C1CCc2nnnn2CC1` [Pentylenetetrazole] was tested, and the fold induction at 50 µM (E. coli; [3]) was 0.6, the fold induction at 50 µM (K. pneumoniae; 384-well format, cutoff for positive-scoring molecules 3-fold increase, read-out: AK-based Prestwick Library Screening Results, K. pneumoniae (increase in extracellular AK activity)) was 0.5 and the fold induction at 50 µM (E. faecium; 384-well format, cutoff for positive-scoring molecules 3-fold increase, read-out: AK-based Prestwick Library Screening Results, E. faecium (increase in extracellular AK activity)) was 1. For the same compound, the fold induction at 50 µM ([1]; 384-well format, cutoff for positive-scoring molecules 3-fold increase, read-out: AK-based Prestwick Library Screening Results, S. aureus (increase in extracellular AK activity)) was 0.7, the fold induction at 50 µM ([2]; 384-well format, cutoff for positive-scoring molecules 3-fold increase, read-out: AK-based Prestwick Library Screening Results, A. baumannii (increase in extracellular AK activity)) was 0.6 and the fold induction at 50 µM (E. cloacae; 384-well format, cutoff for positive-scoring molecules 3-fold increase, read-out: AK-based Prestwick Library Screening Results, E. cloacae (increase in extracellular AK activity)) was 0.6. It also gave a fold induction at 50 µM (P. aeruginosa; 384-well format, cutoff for positive-scoring molecules 3-fold increase, read-out: AK-based Prestwick Library Screening Results, P. aeruginosa (increase in extracellular AK activity)) of 0.7.
`Cc1cc2c(cc1S(N)(=O)=O)S(=O)(=O)CCC2` [Meticrane] showed a fold induction at 50 µM (E. coli; [3]) of 0.6, a fold induction at 50 µM (K. pneumoniae; 384-well format, […], read-out: AK-based Prestwick Library Screening Results, K. pneumoniae (increase in extracellular AK activity)) of 0.5 and a fold induction at 50 µM (E. faecium; 384-well format, […], read-out: AK-based Prestwick Library Screening Results, E. faecium (increase in extracellular AK activity)) of 0.9. It also gave a fold induction at 50 µM ([1]; 384-well format, […], read-out: AK-based Prestwick Library Screening Results, S. aureus (increase in extracellular AK activity)) of 0.8, a fold induction at 50 µM ([2]; 384-well format, […], read-out: AK-based Prestwick Library Screening Results, A. baumannii (increase in extracellular AK activity)) of 0.8 and a fold induction at 50 µM (E. cloacae; 384-well format, […], read-out: AK-based Prestwick Library Screening Results, E. cloacae (increase in extracellular AK activity)) of 0.7. It also gave a fold induction at 50 µM (P. aeruginosa; 384-well format, […], read-out: AK-based Prestwick Library Screening Results, P. aeruginosa (increase in extracellular AK activity)) of 0.6.
`Cc1c(N(C)C)c(=O)n(-c2ccccc2)n1C` [Amidopyrine] was tested, and the “AK-based Prestwick Library Screening Results, E. coli (increase in extracellular AK activity)” value (E. coli; [4]) was 0.5, the “AK-based Prestwick Library Screening Results, K. pneumoniae (increase in extracellular AK activity)” value (K. pneumoniae; [4]) was 0.5 and the “AK-based Prestwick Library Screening Results, E. faecium (increase in extracellular AK activity)” value (E. faecium; [4]) was 0.9. For the same compound, the “AK-based Prestwick Library Screening Results, S. aureus (increase in extracellular AK activity)” value [1, 4] was 0.4, the “AK-based Prestwick Library Screening Results, A. baumannii (increase in extracellular AK activity)” value [2, 4] was 0.4 and the “AK-based Prestwick Library Screening Results, E. cloacae (increase in extracellular AK activity)” value (E. cloacae; [4]) was 0.4. The “AK-based Prestwick Library Screening Results, P. aeruginosa (increase in extracellular AK activity)” value (P. aeruginosa; [4]) was 0.4.
`C=C[C@H]1C[N@@]2CC[C@H]1C[C@@H]2[C@@H](O)c1ccnc2ccccc12` [Cinchonine] gave a fold induction at 50 µM (E. coli; [5]) of 1.2, a fold induction at 50 µM (K. pneumoniae; [6]) of 1 and a fold induction at 50 µM (E. faecium; [7]) of 1.1. The fold induction at 50 µM [1, 8] was 1.6, the fold induction at 50 µM [2, 9] was 1.1 and the fold induction at 50 µM (E. cloacae; [10]) was 1.5. For the same compound, the fold induction at 50 µM (P. aeruginosa; [11]) was 1.1.
In the case of `O=c1c(O)c(-c2ccc(O)cc2)oc2cc(O)cc(O)c12` [Kaempferol], the fold induction at 50 µM (E. coli; planktonic E. coli, positive cutoff 3-fold increase, read-out: AK-based Prestwick library screening result, E. coli (fold increase in extracellular AK activity)) is reported as 0.5, the fold induction at 50 µM (K. pneumoniae; planktonic K. pneumoniae, positive cutoff 3-fold increase, read-out: AK-based Prestwick library screening result, K. pneumoniae (fold increase in extracellular AK activity)) is reported as 0.6 and the fold induction at 50 µM (E. faecium; planktonic E. faecium, positive cutoff 3-fold increase, read-out: AK-based Prestwick library screening result, E. faecium (fold increase in extracellular AK activity)) is reported as 1. For the same compound, the fold induction at 50 µM ([1]; planktonic S. aureus, positive cutoff 3-fold increase, read-out: AK-based Prestwick library screening result, S. aureus (fold increase in extracellular AK activity)) was 0.2, the fold induction at 50 µM ([2]; planktonic A. baumannii, positive cutoff 3-fold increase, read-out: AK-based Prestwick library screening result, A. baumannii (fold increase in extracellular AK activity)) was 0.5 and the fold induction at 50 µM (E. cloacae; planktonic E. cloacae, positive cutoff 3-fold increase, read-out: AK-based Prestwick library screening result, E. cloacae (fold increase in extracellular AK activity)) was 1.6. For the same compound, the fold induction at 50 µM (P. aeruginosa; planktonic P. aeruginosa, positive cutoff 3-fold increase, read-out: AK-based Prestwick library screening result, P. aeruginosa (fold increase in extracellular AK activity)) was 0.6.
Work on `N=C(N)N1CCc2ccccc2C1` [Debrisoquin sulfate] yielded a fold induction at 50 µM (E. coli; [5]) of 1.2, a fold induction at 50 µM (K. pneumoniae; [6]) of 0.8 and a fold induction at 50 µM (E. faecium; [7]) of 1. It also gave a fold induction at 50 µM [1, 8] of 0.9, a fold induction at 50 µM [2, 9] of 0.9 and a fold induction at 50 µM (E. cloacae; [10]) of 1.7. The fold induction at 50 µM (P. aeruginosa; [11]) was 1.
